For data set [1], the system named is ECV-304. In words: Membrane permeabilization effect on lysosome of human ECV304 cells assessed as induction of membrane lysis at 24 to 48 uM after 1 hr by N-Acetylglucosaminidase release assay. Format: functional, cell-based.
In data set [2] the test system is ECV-304. In words: Membrane permeabilization effect on lysosome of human ECV304 cells assessed as induction of membrane lysis up to 6 uM after 1 hr by N-Acetylglucosaminidase release assay. Format: functional, cell-based.
Data set [3] is described as follows: Hemolytic activity against human RBC at 6 uM after 30 mins relative to control. Particulars: red blood cells (RBC), read-out: Activity. Format: ADME, cell-based, Erythrocyte.
For data set [4], the system named is ECV-304. Kind of data set: Membrane permeabilization effect on human ECV304 cells at 3 uM measured every 15 secs for 3 hrs by real time impedance-based plate reader analysis. Format: functional, cell-based.
Data set [5] has as its system ECV-304. Kind of data set: Membrane permeabilization effect on human ECV304 cells assessed as normalized cell index at 12 to 24 uM measured every 15 secs for 3 hrs by real time impedance-based plate reader analysis relative to control relative to control. Format: functional.
The subject of data set [6] is ECV-304. In words: Membrane permeabilization effect on human ECV304 cells assessed as increase in propidium iodide uptake at 12 uM after 1 hr by FACS flow cytometric analysis. Format: functional, cell-based. (Flow cytometry measures light scatter and fluorescence of single cells or particles in a stream.)
Data set [7] relates to ECV-304. In words: Membrane permeabilization effect on human ECV304 cells assessed as normalized cell index at 6 uM measured every 15 secs for 3 hrs by real time impedance-based plate reader analysis relative to control. Format: functional.
A short description of data set [8]: Hemolytic activity against human RBC at 12 uM after 30 mins relative to control. Particulars: for hemolysis at 0.5 h, 12 µM: red blood cells (RBC), read-out: Activity. Format: ADME, cell-based, Erythrocyte.
In data set [9] the test system is ECV-304. Kind of data set: Membrane permeabilization effect on human ECV304 cells assessed as induction of membrane lysis at 48 uM after 1 hr. Format: functional, cell-based.
Data set [10] deals with ECV-304. Kind of data set: Membrane permeabilization effect on human ECV304 cells assessed as increase in propidium iodide uptake at 24 uM after 1 hr by FACS flow cytometric analysis. Format: functional, cell-based.
The subject of data set [11] is ECV-304. In words: Membrane permeabilization effect on human ECV304 cells up to 12 uM measured every 15 secs for 3 hrs by real time impedance-based plate reader analysis. Format: functional, cell-based.
The subject of data set [12] is ECV-304. Kind of data set: Membrane permeabilization effect on lysosome of human ECV304 cells at 6 to 48 uM after 1 hr by N-Acetylglucosaminidase release assay. Format: functional, cell-based.
The nature of data set [13]: Hemolytic activity against human RBC at 3 uM after 30 mins relative to control. Format: ADME, cell-based, Erythrocyte. To be noted: red blood cells (RBC), read-out: Activity.
The subject of data set [14] is ECV-304. In words: Membrane permeabilization effect on human ECV304 cells assessed as propidium iodide uptake at 3 to 48 uM after 1 hr by FACS flow cytometric analysis. Format: functional, cell-based.
In data set [15] the test system is ECV-304. Kind of data set: Membrane permeabilization on human ECV304 cells at 24 uM measured every 15 secs for 3 hrs by real time impedance-based plate reader analysis. Format: functional, cell-based.
In data set [16] the test system is ECV-304. In words: Membrane permeabilization effect on lysosome of human ECV304 cells assessed as induction of membrane lysis at 3 to 48 uM after 1 hr by N-Acetylglucosaminidase release assay. Format: functional, cell-based.
Data set [17] has as its system ECV-304. Kind of data set: Membrane permeabilization effect on human ECV304 cells assessed as normalized cell index at 24 uM measured every 15 secs for 3 hrs by real time impedance-based plate reader analysis relative to control. Format: functional.
Data set [18] deals with ECV-304. Kind of data set: Cytotoxicity against human ECV304 cells at 24 uM after 3 hrs. Particulars: ecv-304, 3 h. Format: cell-based.
The nature of data set [19]: Hemolytic activity against human RBC at 24 uM after 30 mins relative to control. Particulars: for hemolysis at 0.5 h, 24 µM: red blood cells (RBC), read-out: Activity. Format: ADME, cell-based, Erythrocyte.
The subject of data set [20] is ECV-304. In words: Membrane permeabilization effect on human ECV304 cells at 6 uM measured every 15 secs for 3 hrs by real time impedance-based plate reader analysis. Format: functional, cell-based.
Data set [21] concerns ECV-304. Kind of data set: Membrane permeabilization effect on human ECV304 cells at 12 to 24 uM measured every 15 secs for 3 hrs by real time impedance-based plate reader analysis. Format: functional, cell-based.
A short description of data set [22]: Hemolytic activity against human RBC up to 12 uM after 30 mins. Format: ADME, cell-based. Particulars: erythrocyte, 0.5 h.
In data set [23] the test system is ECV-304. In words: Membrane permeabilization effect on human ECV304 cells assessed as increase in propidium iodide uptake at 24 to 48 uM after 1 hr by FACS flow cytometric analysis. Format: functional, cell-based.
Data set [24] relates to ECV-304. Kind of data set: Membrane permeabilization effect on lysosome of human ECV304 cells assessed as induction of membrane lysis at 48 uM after 1 hr by N-Acetylglucosaminidase release assay. Format: functional, cell-based.
Data set [25] can be described thus: Hemolytic activity against human RBC at 48 uM after 30 mins. Format: ADME, cell-based. To be noted: erythrocyte, 0.5 h.

Active and inactive are the calls of the source. No cut-off for these calls is given here.

In the case of `CC(=O)O[C@H]1[C@H](O[C@@H]2OC[C@@H](O)[C@H](O)[C@H]2O)[C@@H](O)[C@H](O[C@@H]2[C@H](O)[C@@H](O[C@@H]3O[C@@H](C)[C@H](O[C@@H]4OC[C@@H](O)[C@H](O[C@@H]5OC[C@@H](O)[C@H](O)[C@H]5O)[C@H]4O)[C@@H](O)[C@H]3O)[C@H](OC(=O)[C@]34CCC(C)(C)C[C@H]3C3=CC[C@@H]5[C@@]6(C)CC[C@H](O[C@H]7O[C@H](C(=O)O)[C@@H](O)[C@H](O[C@@H]8OC[C@@H](O)[C@H](O)[C@H]8O)[C@H]7O[C@@H]7O[C@H](CO)[C@H](O)[C@H](O)[C@H]7O)[C@@](C)(C=O)[C@@H]6CC[C@@]5(C)[C@]3(C)C[C@H]4O)O[C@@H]2C)O[C@@H]1C`, the result in the data set on ECV-304 [1], in the data set with ECV-304 [6] and in the data set on ECV-304 [9] was Active. For the same compound, the outcome with ECV-304 [2] and in the data set with ECV-304 [4] was inactive. Besides, the hemolysis at 0.5 h, 6 µM in data set [3] is 61%. Further, the “fold change (FC)” value with ECV-304 [5] was 0; in the data set on ECV-304 [7] it was 0.6. Further, the Activity entry in data set [8] (erythrocyte, 0.5 h, 12 µM) is “Toxic”.
`CCC(C)C(CC(O)CC(=O)O[C@H]1[C@@H](O)[C@@H](C)O[C@@H](OC(=O)[C@]23CCC(C)(C)C[C@H]2C2=CC[C@@H]4[C@@]5(C)CC[C@H](O[C@H]6O[C@H](C(=O)O)[C@@H](O)[C@H](O[C@@H]7OC[C@@H](O)[C@H](O)[C@H]7O)[C@H]6O[C@@H]6O[C@H](CO)[C@H](O)[C@H](O)[C@H]6O)[C@@](C)(C=O)[C@@H]5CC[C@@]4(C)[C@]2(C)C[C@H]3O)[C@@H]1O[C@@H]1O[C@@H](C)[C@H](O[C@@H]2OC[C@@H](O)[C@H](O[C@@H]3OCC(O)(O)[C@H]3O)[C@H]2O)[C@@H](O[C@@H]2O[C@H](CO)[C@@H](O)[C@H](O)[C@H]2O)[C@H]1O)OC(=O)CC(O)CC(O[C@@H]1O[C@@H](CO)[C@H](O)[C@H]1O[C@@H]1O[C@@H](C)[C@H](O)[C@@H](O)[C@H]1O)C(C)CC` (stereo in doubt; form 1) [listing 1 of 2 here]: the outcome with ECV-304 [10] and in the data set on ECV-304 [9] was Active. The outcome in the data set on ECV-304 [2] and in the data set on ECV-304 [11] was inactive.
Take `C[C@@H]1CC[C@@]2(OC1)O[C@H]1[C@@H](O)[C@H]3[C@@H]4CC[C@H]5C[C@@H](O[C@@H]6O[C@H](CO)[C@H](O[C@@H]7O[C@H](CO)C(O)[C@H](O[C@@H]8OC[C@@H](O)[C@H](O)[C@H]8O)[C@H]7O[C@@H]7O[C@H](CO)[C@H](O)[C@H](O[C@@H]8O[C@H](CO)[C@@H](O)[C@H](O)[C@H]8O)[C@H]7O)[C@H](O)[C@H]6O)[C@H](O)C[C@]5(C)[C@H]4CC[C@]3(C)[C@H]1[C@@H]2C` (stereo partly specified) [DIGITONIN]: the outcome in the data set with ECV-304 [12], with ECV-304 [10], with ECV-304 [4] and in the data set with ECV-304 [9] was Active. The outcome in the data set with ECV-304 [2] was inactive. The hemolysis at 0.5 h, 6 µM in data set [3] was 68%. Further, the hemolysis at 0.5 h, 3 µM in [13] is 22%. In addition, in data set [8], the hemolysis at 0.5 h, 12 µM was more than 80%.
With `CCC(C)C(CC(O)CC(=O)O[C@H]1[C@@H](O)[C@@H](C)O[C@@H](OC(=O)[C@]23CCC(C)(C)C[C@H]2C2=CC[C@@H]4[C@@]5(C)CC[C@H](O[C@H]6O[C@H](C(=O)O)[C@@H](O)[C@H](O[C@@H]7OC[C@@H](O)[C@H](O)[C@H]7O)[C@H]6O[C@@H]6O[C@H](CO)[C@H](O)[C@H](O)[C@H]6O)[C@@](C)(C=O)[C@@H]5CC[C@@]4(C)[C@]2(C)C[C@H]3O)[C@@H]1O[C@@H]1O[C@@H](C)[C@H](O[C@@H]2OC[C@@H](O)[C@H](O[C@@H]3OCC(O)(O)[C@H]3O)[C@H]2O)[C@@H](O[C@@H]2O[C@H](CO)[C@@H](O)[C@H](O)[C@H]2O)[C@H]1O)OC(=O)CC(O)CC(O[C@@H]1O[C@@H](CO)[C@H](O)[C@H]1O[C@@H]1O[C@@H](C)[C@H](O)[C@@H](O)[C@H]1O)C(C)CC` (stereo in doubt; form 2) [listing 1 of 2 here], the outcome in the data set on ECV-304 [14], in the data set on ECV-304 [15], with ECV-304 [2] and in the data set with ECV-304 [16] was inactive.
In the case of `CCC(C)C(CC(O)CC(=O)O[C@H]1[C@@H](O)[C@@H](C)O[C@@H](OC(=O)[C@]23CCC(C)(C)C[C@H]2C2=CC[C@@H]4[C@@]5(C)CC[C@H](O[C@H]6O[C@H](C(=O)O)[C@@H](O)[C@H](O[C@@H]7OC[C@@H](O)[C@H](O)[C@H]7O)[C@H]6O[C@@H]6O[C@H](CO)[C@H](O)[C@H](O)[C@H]6O)[C@@](C)(C=O)[C@@H]5CC[C@@]4(C)[C@]2(C)C[C@H]3O)[C@@H]1O[C@@H]1O[C@@H](C)[C@H](O[C@@H]2OC[C@@H](O)[C@H](O[C@@H]3OCC(O)(O)[C@H]3O)[C@H]2O)[C@@H](O[C@@H]2O[C@H](CO)[C@@H](O)[C@H](O)[C@H]2O)[C@H]1O)OC(=O)CC(O)CC(O[C@@H]1O[C@@H](CO)[C@H](O)[C@H]1O[C@@H]1O[C@@H](C)[C@H](O)[C@@H](O)[C@H]1O)C(C)CC` (stereo in doubt; form 1) [listing 2 of 2 here], the “fold change (FC)” value in the data set with ECV-304 [17] is 0.1. The hemolysis at 0.5 h, 6 µM in [3] came out at 27%. Moreover, the hemolysis at 0.5 h, 12 µM in data set [8] was 67%. For the same compound, the Activity entry in the data set on ECV-304 [18] was “Toxic”; in data set [19] (erythrocyte, 0.5 h, 24 µM), “Toxic”.
As for `C[C@@H]1O[C@@H](O[C@H]2[C@H](OC(=O)[C@]34CCC(C)(C)C[C@H]3C3=CC[C@@H]5[C@@]6(C)CC[C@H](O[C@H]7O[C@H](C(=O)O)[C@@H](O)[C@H](O[C@@H]8OC[C@@H](O)[C@H](O)[C@H]8O)[C@H]7O[C@@H]7O[C@H](CO)[C@H](O)[C@H](O)[C@H]7O)[C@@](C)(C=O)[C@@H]6CC[C@@]5(C)[C@]3(C)CC4)O[C@H](C)[C@H](O[C@@H]3O[C@H](C)[C@@H](O)[C@H](O)[C@H]3O)[C@@H]2O)[C@H](O)[C@H](O)[C@H]1O[C@@H]1OC[C@@H](O)[C@H](O[C@@H]2OC[C@@H](O)[C@H](O)[C@H]2O)[C@H]1O`, the result with ECV-304 [20] and with ECV-304 [23] was Active. The result with ECV-304 [21], in the data set on ECV-304 [2] and with ECV-304 [24] was inactive. Further, the Activity entry in data set [22] is on record as “Non-toxic”; in data set [25], “Toxic”. Also, the hemolysis at 0.5 h, 24 µM in [19] is 30%.
Consider `CCC(C)C(CC(O)CC(=O)O[C@H]1[C@@H](O)[C@@H](C)O[C@@H](OC(=O)[C@]23CCC(C)(C)C[C@H]2C2=CC[C@@H]4[C@@]5(C)CC[C@H](O[C@H]6O[C@H](C(=O)O)[C@@H](O)[C@H](O[C@@H]7OC[C@@H](O)[C@H](O)[C@H]7O)[C@H]6O[C@@H]6O[C@H](CO)[C@H](O)[C@H](O)[C@H]6O)[C@@](C)(C=O)[C@@H]5CC[C@@]4(C)[C@]2(C)C[C@H]3O)[C@@H]1O[C@@H]1O[C@@H](C)[C@H](O[C@@H]2OC[C@@H](O)[C@H](O[C@@H]3OCC(O)(O)[C@H]3O)[C@H]2O)[C@@H](O[C@@H]2O[C@H](CO)[C@@H](O)[C@H](O)[C@H]2O)[C@H]1O)OC(=O)CC(O)CC(O[C@@H]1O[C@@H](CO)[C@H](O)[C@H]1O[C@@H]1O[C@@H](C)[C@H](O)[C@@H](O)[C@H]1O)C(C)CC` (stereo in doubt; form 2) [listing 2 of 2 here], for which the Activity result in data set [22] is listed as “Non-toxic”; in data set [25], “Toxic”. Also, the hemolysis at 0.5 h, 24 µM in data set [19] came to 61%.

The values above are taken from ChEMBL document CHEMBL2346628, “Real-time analysis of membrane permeabilizing effects of oleanane saponins” (Bioorg Med Chem, 2013).
